Columns and labels:
[1] = system: rice; assay: Test B flood test rice; type: in vivo, Oryza sativa
Procedure, shortened: (§1)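 Read-out is a visual response score from 0 (no effect) to 10 (complete control), assigned by comparison with untreated controls. Treatment was applied at the 2-leaf stage, and plants stayed in the greenhouse for twelve to sixteen days before scoring.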

[2] = system: cocklebur; assay: Test B pre/postemergence cocklebur; type: in vivo, Xanthium strumarium
Procedure, shortened: (§2)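 Test chemicals in a non-phytotoxic solvent mixture with surfactant were sprayed preemergence onto planted seeds and postemergence onto plants 2 to 18 cm tall (1- to 4-leaf stage). After twelve to sixteen days in a greenhouse, injury was visually rated against untreated controls from 0 (no effect) to 10 (complete control).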

[3] = system: bamyardgrass; assay: Test B flood test barnyardgrass; type: in vivo, Echinochloa crus-galli
Procedure, shortened: as §1

[4] = system: velvetleaf; assay: Test B pre/postemergence velvetleaf; type: in vivo, Abutilon theophrasti
Procedure, shortened: as §2

[5] = system: wild oat; assay: Test B pre/postemergence wild oat; type: in vivo, Avena fatua
Procedure, shortened: as §2

[6] = system: smallflower flatsedge; assay: Test B flood test smallflower flatsedge; type: in vivo, Cyperus difformis
Procedure, shortened: as §1

[7] = system: purple nutsedge; assay: Test B pre/postemergence purple nutsedge; type: in vivo, Cyperus rotundus
Procedure, shortened: as §2

[8] = system: pigweed; assay: Test B pre/postemergence pigweed; type: in vivo, Amaranthus retroflexus
Procedure, shortened: as §2

[9] = system: corn; assay: Test B pre/postemergence corn; type: in vivo, Zea mays
Procedure, shortened: as §2

[10] = system: surinam grass; assay: Test B pre/postemergence surinam grass; type: in vivo, Brachiaria decumbens
Procedure, shortened: as §2

[11] = system: bedstraw; assay: Test B pre/postemergence bedstraw; type: in vivo, Galium aparine
Procedure, shortened: as §2

[12] = system: wheat; assay: Test B pre/postemergence wheat; type: in vivo, Triticum aestivum
Procedure, shortened: as §2

[13] = system: blackgrass; assay: Test B pre/postemergence blackgrass; type: in vivo, Alopecurus myosuroides
Procedure, shortened: as §2

[14] = system: duck salad; assay: Test B flood test duck salad; type: in vivo, Heteranthera limosa
Procedure, shortened: as §1

[15] = system: morningglory; assay: Test B pre/postemergence morningglory; type: in vivo, Ipomoea hederacea
Procedure, shortened: as §2

[16] = system: rape; assay: Test B pre/postemergence rape; type: in vivo, Brassica napus
Procedure, shortened: as §2

[17] = Rate 62 g/ha, flood test species, Pre-emergence, visual evaluation after twelve to sixteen days
[18] = Rate 125 g/ha, under heading Pre-emergence, flood test species, visual evaluation after twelve to sixteen days
[19] = Rate 250 g/ha, Pre-emergence (flood test species), scale 0 to 10, 0 is no effect, 10 is complete control
[20] = Rate 500 g/ha, Pre-emergence section of Table B, 0 to 10 scale (0 no effect, 10 complete control)
[21] = Postemergence, Rate 62 g/ha, scale of 0 to 10, 0 is no effect, 10 is complete control
[22] = Postemergence, Rate 125 g/ha, scale 0 to 10, 0 is no effect, 10 is complete control
[23] = Postemergence, Rate 500 g/ha, scale 0 to 10, 0 is no effect, 10 is complete control
[24] = Preemergence, Rate 62 g/ha, scale of 0 to 10 where 0 is no effect and 10 is complete control
[25] = Preemergence, Rate 125 g/ha, scale 0 to 10, 0 is no effect, 10 is complete control
[26] = Preemergence, Rate 500 g/ha, scale of 0 to 10 where 0 is no effect and 10 is complete control
[27] = Rate 250 g/ha, Postemergence, scale of 0 to 10 where 0 is no effect and 10 is complete control

CC(C)N(C(=O)n1oc(=O)n(CCC2OCCCO2)c1=O)c1ccc(Cl)cc1 [Compound 532]
Plant response rating, Rice (0 to 10 scale, 0 is no effect, 10 is complete control) [1, 17]: 0
Rice plant response rating (0 to 10 scale, 0 is no effect, 10 is complete control) [1, 18]: 1
Rice plant response rating [1, 19]: 9
Rice plant response rating [1, 20]: 8
Cocklebur plant response rating [2, 21]: 0
Cocklebur plant response rating [2, 22]: 0
Plant response rating, Cocklebur [2, 23]: 4
Plant response rating, Cocklebur [2, 24]: 0
Cocklebur plant response rating [2, 25]: 0
Cocklebur plant response rating (0 to 10 scale) ([2]; Preemergence, Rate 250 g/ha): 0
Cocklebur plant response rating [2, 26]: 0
Plant response rating, Cocklebur [2, 27]: 2
Plant response rating, Barnyardgrass (0 to 10 scale, 0 is no effect, 10 is complete control) [3, 17]: 0
Barnyardgrass plant response rating (0 to 10 scale, 0 is no effect, 10 is complete control) [3, 18]: 0
Barnyardgrass plant response rating [3, 19]: 9
Barnyardgrass plant response rating [3, 20]: 9
Velvetleaf plant response rating [4, 21]: 0
Velvetleaf plant response rating [4, 22]: 0
Plant response rating, Velvetleaf [4, 23]: 2
Plant response rating, Velvetleaf [4, 24]: 0
Velvetleaf plant response rating [4, 25]: 0
Velvetleaf plant response rating (0 to 10 scale) ([4]; Preemergence, Rate 250 g/ha): 0
Velvetleaf plant response rating [4, 26]: 4
Plant response rating, Velvetleaf [4, 27]: 2
Wild oats plant response rating [5, 21]: 0
Wild oats plant response rating [5, 22]: 0
Plant response rating, Wild oats [5, 23]: 0
Plant response rating, Wild oats [5, 24]: 0
Wild oats plant response rating [5, 25]: 0
Wild oats plant response rating (0 to 10 scale) ([5]; Preemergence, Rate 250 g/ha): 0
Wild oats plant response rating [5, 26]: 0
Plant response rating, Wild oats [5, 27]: 0
Plant response rating, S. Flatsedge (0 to 10 scale, 0 is no effect, 10 is complete control) [6, 17]: 9
S. Flatsedge plant response rating (0 to 10 scale, 0 is no effect, 10 is complete control) [6, 18]: 8
S. Flatsedge plant response rating [6, 19]: 9
S. Flatsedge plant response rating [6, 20]: 9
Nutsedge plant response rating [7, 21]: 4
Nutsedge plant response rating [7, 22]: 0
Plant response rating, Nutsedge [7, 24]: 0
Nutsedge plant response rating [7, 25]: 0
Nutsedge plant response rating (0 to 10 scale) ([7]; Preemergence, Rate 250 g/ha): 0
Nutsedge plant response rating [7, 26]: 0
Redroot pigweed plant response rating [8, 21]: 0
Redroot pigweed plant response rating [8, 22]: 0
Plant response rating, Redroot pigweed [8, 23]: 2
Plant response rating, Redroot pigweed [8, 24]: 0
Redroot pigweed plant response rating [8, 25]: 0
Redroot pigweed plant response rating (0 to 10 scale) ([8]; Preemergence, Rate 250 g/ha): 0
Redroot pigweed plant response rating [8, 26]: 0
Plant response rating, Redroot pigweed [8, 27]: 0
Corn plant response rating [9, 21]: 2
Corn plant response rating [9, 22]: 0
Plant response rating, Corn [9, 23]: 2
Plant response rating, Corn [9, 24]: 0
Corn plant response rating [9, 25]: 0
Corn plant response rating (0 to 10 scale) ([9]; Preemergence, Rate 250 g/ha): 0
Corn plant response rating [9, 26]: 0
Plant response rating, Corn [9, 27]: 0
B. signalgrass plant response rating [10, 21]: 0
B. signalgrass plant response rating [10, 22]: 0
Plant response rating, B. signalgrass [10, 23]: 0
Plant response rating, B. signalgrass [10, 24]: 0
B. signalgrass plant response rating [10, 25]: 0
B. signalgrass plant response rating (0 to 10 scale, 0 is no effect, 10 is complete control) ([10]; Preemergence, Rate 250 g/ha): 0
B. signalgrass plant response rating [10, 26]: 0
Plant response rating, B. signalgrass [10, 27]: 0
Bedstraw plant response rating [11, 21]: 0
Bedstraw plant response rating [11, 22]: 0
Plant response rating, Bedstraw [11, 23]: 0
Plant response rating, Bedstraw [11, 24]: 0
Bedstraw plant response rating [11, 26]: 0
Plant response rating, Bedstraw [11, 27]: 0
Wheat plant response rating [12, 21]: 0
Wheat plant response rating [12, 22]: 0
Plant response rating, Wheat [12, 23]: 0
Plant response rating, Wheat [12, 24]: 0
Wheat plant response rating [12, 25]: 0
Wheat plant response rating (0 to 10 scale) ([12]; Preemergence, Rate 250 g/ha): 0
Wheat plant response rating [12, 26]: 0
Plant response rating, Wheat [12, 27]: 0
Blackgrass plant response rating [13, 21]: 0
Blackgrass plant response rating [13, 22]: 0
Plant response rating, Blackgrass [13, 23]: 0
Plant response rating, Blackgrass [13, 24]: 0
Blackgrass plant response rating [13, 25]: 0
Blackgrass plant response rating (0 to 10 scale) ([13]; Preemergence, Rate 250 g/ha): 0
Blackgrass plant response rating [13, 26]: 0
Plant response rating, Blackgrass [13, 27]: 0
Plant response rating, Ducksalad (0 to 10 scale, 0 is no effect, 10 is complete control) [14, 17]: 8
Ducksalad plant response rating (0 to 10 scale, 0 is no effect, 10 is complete control) [14, 18]: 8
Ducksalad plant response rating [14, 19]: 9
Ducksalad plant response rating [14, 20]: 9
Morningglory plant response rating [15, 21]: 0
Morningglory plant response rating [15, 22]: 3
Plant response rating, Morningglory [15, 23]: 5
Plant response rating, Morningglory [15, 24]: 0
Morningglory plant response rating [15, 25]: 0
Morningglory plant response rating (0 to 10 scale) ([15]; Preemergence, Rate 250 g/ha): 0
Morningglory plant response rating [15, 26]: 0
Plant response rating, Morningglory [15, 27]: 5
Rape plant response rating [16, 21]: 0
Rape plant response rating [16, 22]: 0
Plant response rating, Rape [16, 23]: 2
Plant response rating, Rape [16, 24]: 0
Rape plant response rating [16, 25]: 0
Rape plant response rating (0 to 10 scale) ([16]; Preemergence, Rate 250 g/ha): 0
Rape plant response rating [16, 26]: 0
Plant response rating, Rape [16, 27]: 2

— patent US6737383B1, “Herbicidal oxadiazolidines” (priority 1999, dated 2004)
